Laboratory results from patent US20230346823A1, “UTILIZATION OF VITAMIN B12 IN INHIBITING RENAL DISORDER” (Niigata University, priority 2020, published 2023).
Each block holds one molecule with its values, some of them ahead of it.

What was measured:
[1] = target: megalin (Mus musculus, UniProt A2ARV4); conditions: described in PTL 1; cited from earlier work
[2] = target: T1, transcobalamin 2 (TCN2) (Rattus norvegicus, UniProt Q9R0D6); test: Competition against binding of TCN2 to contrast medium-immobilized beads, Western blotting; conditions: 25 ng/µL TCN2 + test substance; contrast medium beads (iomeprol, ioversol, iodixanol, iopromide, iohexol) at 10 mM feed; FIG. 6 to FIG. 10
T1 construct: purchased LifeSpan BioSciences, Inc
T1 sequence (Q9R0D6 19-427): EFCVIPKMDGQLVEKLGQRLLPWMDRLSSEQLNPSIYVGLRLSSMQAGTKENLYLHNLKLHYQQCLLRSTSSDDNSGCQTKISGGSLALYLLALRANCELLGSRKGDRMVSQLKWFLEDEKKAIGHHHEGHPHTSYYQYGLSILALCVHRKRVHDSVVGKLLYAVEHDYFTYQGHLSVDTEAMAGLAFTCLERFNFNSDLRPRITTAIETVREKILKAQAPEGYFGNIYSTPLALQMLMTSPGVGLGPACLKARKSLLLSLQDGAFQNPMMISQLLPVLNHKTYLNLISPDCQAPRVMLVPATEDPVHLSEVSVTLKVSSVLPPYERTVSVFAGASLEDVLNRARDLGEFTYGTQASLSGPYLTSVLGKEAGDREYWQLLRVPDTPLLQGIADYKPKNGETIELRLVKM
Description: Iodinated contrast media used were the bulk of iomeprol, the bulk of ioversol, the bulk of iodixanol, the bulk of iopromide, and the bulk of iohexol. Evaluations were made using these solid-phased beads.
For test chemicals for competing with the binding, vitamin B12 (cyanocobalamin, methylcobalamin, or hydroxocobalamin), cilastatin, and iomeprol (iodinated contrast medium) were used. Cilastatin and iomeprol are positive controls of inhibition.
The solution/beads combinations adopted were as mentioned below. • Solution a) + contrast medium-immobilized beads prepared at 0 mM contrast medium feed concentration (control) • Solution a) + contrast medium-immobilized beads prepared at 10 mM contrast medium feed concentration (no competition) • Solution b) + contrast medium-immobilized beads prepared at 10 mM contrast medium feed concentration (competition with vitamin B12, iomeprol, or cilastatin)

[3] = target: T1, transcobalamin 2 (TCN2); test: Binding of TCN2 to iomeprol-immobilized magnetic beads, Western blotting with anti-TCN2 antibody; conditions: feed concentrations 0, 3 and 10 mM, 25 ng/µL TCN2, 4° C., 4 hours, FIG. 5
Protocol: The bulk of iodinated contrast medium was dissolved, just before use, in a solvent in which glycidylmethacrylate-coated magnetic beads (FG beads®, particle size: 0.2 µm, produced by Tamagawa Seiki Co., Ltd.) were dispersed, to initiate chemical bonding between […] present on the surface of the magnetic beads and hydroxyl groups in the contrast medium, whereby contrast medium-immobilized magnetic beads were prepared.
The iodinated contrast medium used was the bulk of iomeprol. At feed concentrations of 0 mM, 3 mM and 10 mM, the iodinated contrast medium was immobilized by chemical bonding. The preparation of the iomeprol-immobilized beads was conducted by Tamagawa Seiki Co., Ltd. […]
The TCN2-containing samples were subjected to SDS-polyacrylamide electrophoresis under reducing conditions using 4-15% gradient gels (produced by Bio-Rad Laboratories), and the developed samples were transferred onto polyvinylidene fluoride (PVDF) membranes. […] Then, bands were detected using chemiluminescent substrate for western blotting (SuperSignal™ West Femto Maximum Sensitivity Substrate; Thermo Scientific™).

[4] = tested on: renal proximal tubular epithelial cells; test: Internalization of iodinated contrast medium into kidney cortex, iodine/nitrogen ratio by EPMA; type: in vivo, C57BL/6J mice; conditions: 100 µL iomeprol + 100 µL of 1 mg/mL cyanocobalamin, tail vein; kidneys 3 hours later; vs iomeprol + normal saline control; t-test; FIG. 1
Protocol: The prepared sections were analyzed by EPMA (EPMA1610; Shimadzu Ltd, Kyoto, Japan) by following the procedure described below to examine whether there is a difference in the internalization of a contrast medium between the contrast medium + vitamin B12-treated group and the contrast medium + normal saline-treated group.
EPMA is an electron microprobe (EMP) instrument that analyzes the constituent elements of a substance of interest by irradiating electron beams onto the substance and measuring the wavelengths and intensities of characteristic X-rays unique to the different elements, which are generated by the electron beams. The iodine content in sections can be determined by EMP analysis (Norby, et al., Scanning Microsc, 1990, vol.4, p.651-666). […] The behaviors of iodinated contrast media per se can be verified by analyzing iodine content distribution.
The “thin-film quantification” technique can be applied for analysis of biological samples such as kidney tissue sections. […]
Therefore, by calculating a ratio of characteristic X-ray intensity between iodine (I) and nitrogen (N) (I/N) in a specified area of biological samples, iodine (I) in different samples can be relatively quantified and compared.
Based on this principle, the sections obtained by the above experiment were analyzed by EPMA, and iodine in a specified area was relatively quantified and compared among the samples. […]

[5] = tested on: C57BL/6J mice; test: Contrast-induced renal injury model (left nephrectomy, ischemia-reperfusion, then iomeprol); conditions: 200 µL iomeprol + 100 µL of 1 mg/mL cyanocobalamin, vs iomeprol + normal saline
Protocol: Left kidneys were extracted from the C57BL/6J mice, and 14 days later, right kidney pedicles were ligated for 30 minutes. Thereafter, reperfusion was carried out. After 24 hours from the start of reperfusion, the C57BL/6J mice were divided into the following groups and administered with the following agents from the tail vein. • a) Contrast medium + vitamin B12-treated group: 200 µL of iomeprol + 100 µL of 1 mg/mL of cyanocobalamin solution • b) Contrast medium + normal saline-treated group (control): 200 µL of iomeprol + 100 µL of normal saline
For each of the groups, 24 hours before anatomizing, urine samples were collected using a metabolic cage, the mice were anatomized after 48 hours from the medication, then urinary kidney injury molecule-1 (KIM-1) was measured. Urinary KIM-1 measurements were conducted by Oriental Yeast Co., Ltd.
Further, right kidneys were extracted and histologically evaluated by immunostaining with KIM-1. To be specific, 3 mm-thick sections containing a kidney pedicle portion were prepared from the right kidneys, fixed with 4% paraformaldehyde phosphate buffer, sliced at a thickness of 4 µm using a microtome (REM-710; Yamato Kohki Industrial Co., Ltd.), and the obtained thin slices were immunostained with the renal injury marker KIM-1. The immunostaining was performed using VECTASTAIN Elite ABC Kit (Vector Laboratories, Inc.). […]

[6] = target: T2, megalin (Rattus norvegicus, UniProt P98158); test: Quartz crystal microbalance (QCM) binding of transcobalamin 2 to immobilized megalin; design: species or system Sprague-Dawley (SD) rat; conditions: 1.5 µg recombinant rat transcobalamin 2 injected on megalin-immobilized quartz crystals; BSA control decreased only 20 to 30 Hz; FIG. 4
T2 construct: megalin purified from Sprague-Dawley (SD) rat kidneys; from tissue; host or cells: Sprague-Dawley rat kidneys (megalin purified by the method of Orlando et al.); TCN2 purchased from LifeSpan BioSciences
Protocol: According to the method of Orlando, et al., megalin purified from Sprague-Dawley (SD) rat kidneys was immobilized on quartz crystals. To be specific, with the use of an immobilization kit for AFFINIX® (Initium Inc.) according to the recommended protocol for the kit, a megalin solution was prepared in Buffer A as provided with the kit to a concentration of 62.5 µg/mL, and placed and immobilized on the quartz crystals mounted in a holder.
After the megalin-immobilized quartz crystals were mounted in the measurement instrument AFFINIX® Q8 (Initium Inc.) and the frequency was confirmed to be stable, recombinant rat transcobalamin 2 proteins (TCN2 LifeSpan Bio Sciences, Inc.) (1.5 µg) were injected (in total injection volume) to measure frequency over time. More specifically, after the megalin-immobilized quartz crystals were immersed in 200 µL of buffer and the frequency was confirmed to be stable, transcobalamin 2 was injected and frequency was measured. The same measurement was done on quartz crystals, as a control, on which the same amount of bovine serum albumin (BSA) was immobilized instead of megalin, and the specific binding ability of transcobalamin 2 to megalin was analyzed.

Chain of megalin (Mus musculus, UniProt A2ARV4) (A2ARV4 26-4660): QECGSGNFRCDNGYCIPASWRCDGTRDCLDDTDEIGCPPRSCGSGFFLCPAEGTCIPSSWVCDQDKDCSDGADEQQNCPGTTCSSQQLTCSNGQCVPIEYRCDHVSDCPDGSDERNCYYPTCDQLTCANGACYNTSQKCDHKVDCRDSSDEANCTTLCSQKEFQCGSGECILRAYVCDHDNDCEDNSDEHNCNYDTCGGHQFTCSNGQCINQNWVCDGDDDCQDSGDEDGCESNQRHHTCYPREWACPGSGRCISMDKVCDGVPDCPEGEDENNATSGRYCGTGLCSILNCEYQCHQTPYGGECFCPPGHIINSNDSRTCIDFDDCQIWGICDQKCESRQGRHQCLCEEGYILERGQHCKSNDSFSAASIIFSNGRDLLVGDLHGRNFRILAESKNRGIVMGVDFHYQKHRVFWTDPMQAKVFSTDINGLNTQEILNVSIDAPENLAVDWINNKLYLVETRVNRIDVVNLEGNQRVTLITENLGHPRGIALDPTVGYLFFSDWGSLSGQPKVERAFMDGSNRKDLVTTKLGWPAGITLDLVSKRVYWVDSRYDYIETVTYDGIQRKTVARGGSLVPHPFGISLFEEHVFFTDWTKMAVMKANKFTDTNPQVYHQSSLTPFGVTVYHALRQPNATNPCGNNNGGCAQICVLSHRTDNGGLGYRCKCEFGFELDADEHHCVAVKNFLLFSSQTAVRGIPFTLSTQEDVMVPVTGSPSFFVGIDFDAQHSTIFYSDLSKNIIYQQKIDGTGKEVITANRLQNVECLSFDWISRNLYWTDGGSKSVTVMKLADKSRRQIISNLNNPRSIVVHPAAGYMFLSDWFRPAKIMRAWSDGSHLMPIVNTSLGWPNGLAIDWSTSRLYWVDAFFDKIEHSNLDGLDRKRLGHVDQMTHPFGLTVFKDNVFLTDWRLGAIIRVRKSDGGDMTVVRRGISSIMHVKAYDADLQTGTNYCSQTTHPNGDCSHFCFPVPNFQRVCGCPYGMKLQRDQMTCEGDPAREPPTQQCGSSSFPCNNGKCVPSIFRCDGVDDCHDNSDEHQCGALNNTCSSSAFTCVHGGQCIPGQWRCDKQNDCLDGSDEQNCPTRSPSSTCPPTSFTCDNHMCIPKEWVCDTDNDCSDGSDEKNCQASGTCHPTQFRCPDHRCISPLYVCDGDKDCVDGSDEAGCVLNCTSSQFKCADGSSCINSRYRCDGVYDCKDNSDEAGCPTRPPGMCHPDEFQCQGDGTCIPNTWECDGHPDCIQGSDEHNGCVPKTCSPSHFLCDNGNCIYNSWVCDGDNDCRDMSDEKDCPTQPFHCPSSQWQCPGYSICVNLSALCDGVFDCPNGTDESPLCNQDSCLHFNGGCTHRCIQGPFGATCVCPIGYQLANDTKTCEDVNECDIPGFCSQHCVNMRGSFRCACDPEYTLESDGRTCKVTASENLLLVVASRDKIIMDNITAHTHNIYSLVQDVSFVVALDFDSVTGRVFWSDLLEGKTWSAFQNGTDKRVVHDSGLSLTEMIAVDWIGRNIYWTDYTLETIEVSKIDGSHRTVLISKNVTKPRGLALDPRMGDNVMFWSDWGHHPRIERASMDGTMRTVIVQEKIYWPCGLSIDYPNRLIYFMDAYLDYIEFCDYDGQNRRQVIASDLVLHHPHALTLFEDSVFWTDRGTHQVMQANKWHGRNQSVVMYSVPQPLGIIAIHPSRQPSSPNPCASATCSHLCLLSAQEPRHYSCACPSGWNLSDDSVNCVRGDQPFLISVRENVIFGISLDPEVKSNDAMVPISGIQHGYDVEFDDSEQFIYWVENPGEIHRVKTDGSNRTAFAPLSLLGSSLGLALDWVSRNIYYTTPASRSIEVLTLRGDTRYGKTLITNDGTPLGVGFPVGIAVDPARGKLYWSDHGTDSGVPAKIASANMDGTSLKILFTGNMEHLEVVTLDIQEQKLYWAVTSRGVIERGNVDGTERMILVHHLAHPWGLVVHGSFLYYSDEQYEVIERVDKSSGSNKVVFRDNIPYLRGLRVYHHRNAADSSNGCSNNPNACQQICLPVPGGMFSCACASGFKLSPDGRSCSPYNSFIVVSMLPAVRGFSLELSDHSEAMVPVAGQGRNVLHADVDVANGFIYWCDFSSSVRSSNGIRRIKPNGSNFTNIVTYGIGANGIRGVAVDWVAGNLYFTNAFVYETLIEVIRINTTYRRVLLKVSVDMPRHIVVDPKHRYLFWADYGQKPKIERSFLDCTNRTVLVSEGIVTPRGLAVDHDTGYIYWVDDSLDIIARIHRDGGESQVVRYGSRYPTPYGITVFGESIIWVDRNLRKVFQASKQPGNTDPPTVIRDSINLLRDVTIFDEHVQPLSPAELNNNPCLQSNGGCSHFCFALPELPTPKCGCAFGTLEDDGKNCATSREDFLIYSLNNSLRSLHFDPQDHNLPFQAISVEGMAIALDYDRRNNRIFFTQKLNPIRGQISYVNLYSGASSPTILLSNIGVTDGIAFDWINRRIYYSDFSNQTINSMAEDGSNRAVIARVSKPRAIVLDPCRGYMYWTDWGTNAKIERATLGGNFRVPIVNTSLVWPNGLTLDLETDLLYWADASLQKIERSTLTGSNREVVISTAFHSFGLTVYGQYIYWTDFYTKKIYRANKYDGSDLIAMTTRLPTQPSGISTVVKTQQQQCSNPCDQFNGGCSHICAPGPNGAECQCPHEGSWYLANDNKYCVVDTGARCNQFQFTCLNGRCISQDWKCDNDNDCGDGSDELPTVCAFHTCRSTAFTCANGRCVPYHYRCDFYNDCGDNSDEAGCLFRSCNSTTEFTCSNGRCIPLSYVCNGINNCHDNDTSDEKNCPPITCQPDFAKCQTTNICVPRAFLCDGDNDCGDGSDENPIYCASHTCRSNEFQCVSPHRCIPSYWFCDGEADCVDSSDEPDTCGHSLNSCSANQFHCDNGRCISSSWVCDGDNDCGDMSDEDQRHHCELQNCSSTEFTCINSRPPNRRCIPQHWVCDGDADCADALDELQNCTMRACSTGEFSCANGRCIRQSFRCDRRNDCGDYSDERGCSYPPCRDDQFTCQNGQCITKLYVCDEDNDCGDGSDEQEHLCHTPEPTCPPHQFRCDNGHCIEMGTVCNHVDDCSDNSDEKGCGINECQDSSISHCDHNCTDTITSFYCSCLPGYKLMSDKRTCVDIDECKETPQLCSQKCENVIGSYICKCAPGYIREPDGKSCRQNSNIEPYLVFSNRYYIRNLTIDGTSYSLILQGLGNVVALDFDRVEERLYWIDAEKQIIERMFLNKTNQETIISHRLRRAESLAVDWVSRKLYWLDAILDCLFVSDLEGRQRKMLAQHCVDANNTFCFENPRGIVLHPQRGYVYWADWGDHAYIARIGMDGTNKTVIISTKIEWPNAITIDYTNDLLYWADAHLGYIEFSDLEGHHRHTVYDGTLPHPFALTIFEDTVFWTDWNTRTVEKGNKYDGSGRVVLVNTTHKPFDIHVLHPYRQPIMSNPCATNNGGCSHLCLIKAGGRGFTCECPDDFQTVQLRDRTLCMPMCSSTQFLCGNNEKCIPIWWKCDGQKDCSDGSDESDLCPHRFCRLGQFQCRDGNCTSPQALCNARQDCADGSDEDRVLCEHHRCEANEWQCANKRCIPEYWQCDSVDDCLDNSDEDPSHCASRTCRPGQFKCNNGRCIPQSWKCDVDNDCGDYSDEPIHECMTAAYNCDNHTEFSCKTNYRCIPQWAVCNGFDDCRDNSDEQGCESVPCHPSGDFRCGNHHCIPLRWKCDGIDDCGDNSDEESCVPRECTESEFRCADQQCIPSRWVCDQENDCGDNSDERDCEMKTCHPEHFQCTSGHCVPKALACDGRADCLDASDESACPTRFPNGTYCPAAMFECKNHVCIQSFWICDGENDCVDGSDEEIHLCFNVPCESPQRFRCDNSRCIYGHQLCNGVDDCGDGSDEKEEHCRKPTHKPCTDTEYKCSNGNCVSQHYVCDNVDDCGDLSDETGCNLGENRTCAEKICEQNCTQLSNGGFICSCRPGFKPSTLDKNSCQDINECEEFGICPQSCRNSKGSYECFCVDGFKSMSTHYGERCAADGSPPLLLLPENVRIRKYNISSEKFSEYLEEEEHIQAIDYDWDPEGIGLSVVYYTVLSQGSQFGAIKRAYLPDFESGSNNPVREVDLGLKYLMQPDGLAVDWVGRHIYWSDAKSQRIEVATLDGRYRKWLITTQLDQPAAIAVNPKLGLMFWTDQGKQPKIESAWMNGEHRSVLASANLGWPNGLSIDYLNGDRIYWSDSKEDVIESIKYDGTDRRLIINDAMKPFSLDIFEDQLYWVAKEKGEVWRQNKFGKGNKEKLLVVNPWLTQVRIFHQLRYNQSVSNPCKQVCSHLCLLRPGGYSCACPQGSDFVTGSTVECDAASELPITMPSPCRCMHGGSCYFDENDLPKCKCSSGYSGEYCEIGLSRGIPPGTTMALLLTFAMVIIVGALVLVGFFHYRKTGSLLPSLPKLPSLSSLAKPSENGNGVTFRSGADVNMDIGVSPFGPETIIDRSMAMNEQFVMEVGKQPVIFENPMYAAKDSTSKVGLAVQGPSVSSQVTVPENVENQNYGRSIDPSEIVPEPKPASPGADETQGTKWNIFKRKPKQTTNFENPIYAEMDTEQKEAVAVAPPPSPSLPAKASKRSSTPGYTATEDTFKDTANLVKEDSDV

Molecule: CC1(C)C[C@@H]1C(=O)N/C(=C\CCCCSC[C@H](N)C(=O)O)C(=O)O [cilastatin, (Z)-7-[[(R)-2-Amino-2-carboxyethyl]thio]-2-[[[(S)-2,2-dimethylcyclopropyl]carbonyl]amino]-2-heptenoic acid]
megalin-dependent internalization of iodinated contrast media into renal proximal tubular epithelial cells [1]: inhibits
renal injuries [1]: inhibits renal injuries
TCN2 bands by competition with test substance [2]: concentration-dependent decrease in TCN2 bands

Molecule: C/C1=C2/[N-][C@H]([C@H](CC(N)=O)[C@@]2(C)CCC(=O)NC[C@@H](C)OP(=O)([O-])O[C@H]2[C@@H](O)[C@@H](n3cnc4cc(C)c(C)cc43)O[C@@H]2CO)[C@]2(C)N=C(/C(C)=C3N=C(/C=C4N=C1[C@@H](CCC(N)=O)C\4(C)C)[C@@H](CCC(N)=O)[C@]\3(C)CC(N)=O)[C@@H](CCC(N)=O)[C@]2(C)CC(N)=O.[Co+3].[OH-] [hydroxocobalamin]
TCN2 bands by competition with test substance [2]: concentration-dependent decrease in TCN2 bands

Molecule: CN(C(=O)CO)c1c(I)c(C(=O)NCC(O)CO)c(I)c(C(=O)NCC(O)CO)c1I (stereo not drawn) [iomeprol]
TCN2 bands by competition with test substance [2]: concentration-dependent decrease in TCN2 bands
intensity of TCN2 band from heat-eluted samples [3]: intensity of the band corresponding to TCN2 from heat-eluted samples was increased

Molecule: C/C1=C2/[N-][C@H]([C@H](CC(N)=O)[C@@]2(C)CCC(=O)NC[C@H](C)OP(=O)([O-])O[C@H]2[C@@H](O)[C@@H](n3cnc4cc(C)c(C)cc43)O[C@@H]2CO)[C@]2(C)N=C(/C(C)=C3N=C(/C=C4N=C1[C@@H](CCC(N)=O)C\4(C)C)[C@@H](CCC(N)=O)[C@]\3(C)CC(N)=O)[C@@H](CCC(N)=O)[C@]2(C)CC(N)=O.[CH3-].[Co+3] [methylcobalamin]
TCN2 bands by competition with test substance [2]: concentration-dependent decrease in TCN2 bands

Molecule: cyanocobalamin
I/N X-ray ratio (iodine/nitrogen) in kidney cortex areas [4]: significantly (t-test) lower
expression of KIM-1 in outer cortex (immunostaining) ([5]; tail vein, 48 hours after medication, FIG. 2): expression of KIM-1 was decreased
PAS staining, vacuoles degeneration (injury finding) in kidney cortex ([5]; FIG. 3): did not have such an injury finding
TCN2 bands by competition with test substance [2]: concentration-dependent decrease in TCN2 bands

decrease of QCM frequency [6]: about 200 Hz
B1: transcobalamin 2: Recombinant rat transcobalamin 2 protein, a transport protein for vitamin B12 (about 45 kDa) (protein, UniProt Q9R0D6 19-427, looked up)
Transcobalamin-2: T1 sequence (Q9R0D6 19-427)
